Experimental data from patent US11840686B2, “Modulation of prekallikrein (PKK) expression” (Ionis Pharmaceuticals, Inc., priority 2013, dated 2023).
Strand notation (5' to 3'): a small letter for the sugar, then the base; units joined by * are phosphorothioate-linked, units joined directly phosphodiester-linked; [ ] holds rarer units or linkages, { } end groups; capitals alone tell only the bases. e = 2'-O-(2-methoxyethyl) (MOE); k = constrained ethyl (cEt); [5mC] = 5-methylcytosine; d = 2'-deoxy (DNA)

Columns and labels:
human PKK mRNA [1] = test: Antisense inhibition of human PKK mRNA in HepaRG cells, 1,000 nM, MOE/deoxy/cEt oligonucleotides (Example 3); type: cell-based
Protocol: Additional antisense oligonucleotides were designed targeting a PKK nucleic acid and were tested for their effects on PKK mRNA in vitro.
The chimeric antisense oligonucleotides in the tables below were designed as deoxy, MOE and cEt gapmers. The gapmers are 16 nucleosides in length wherein the nucleoside have either a MOE sugar modification, a cEt sugar modification, or a deoxy modification. The ‘Chemistry’ column describes the sugar modifications of each oligonucleotide. ‘k’ indicates an cEt sugar modification; the number indicates the number of deoxynucleosides; otherwise, indicates a deoxynucleoside; and ‘e’ indicates a 2′-O-methoxyethyl modification. The internucleoside linkages throughout each gapmer are phosphorothioate linkages. All cytosine residues throughout each oligonucleotide are 5-methylcytosines. “Start site” indicates the 5′-most nucleoside to which the gapmer is targeted in the human gene sequence. “Stop site” indicates the 3′-most nucleoside to which the gapmer is targeted in the human gene sequence.
Cultured HepaRG™ cells at a density of 20,000 cells per well were transfected using electroporation with 1,000 nM antisense oligonucleotide. After a treatment period of approximately 24 hours, RNA was isolated from the cells and PKK mRNA levels were measured by quantitative real-time PCR. Human primer probe set RTS3454 was used to measure mRNA levels. ISIS 531231 was also included in this assay. PKK mRNA levels were adjusted according to total RNA content, as measured by RIBOGREEN®. The antisense oligonucleotides were tested in a series of experiments that had similar culture conditions. Results are presented as percent inhibition of PKK, relative to untreated control cells.

human PKK mRNA [2] = test: Antisense inhibition of human PKK mRNA in HepaRG cells, 5,000 nM (Example 2); type: cell-based
Procedure, shortened: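 qRT-PCR (RTS3454) read-out, RIBOGREEN-normalized; % inhibition vs untreated cells. HepaRG, 20,000 cells/well, electroporation, 5,000 nM ASO, ~24 h.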

[3] = Table 27, HepaRG cells, 1,000 nM antisense oligonucleotide, human PKK mRNA
[4] = Table 21 experiment, HepaRG cells, electroporation with 1,000 nM antisense oligonucleotide, approx. 24 hours, PKK mRNA by RT-PCR (RTS3454), relative to untreated control cells
[5] = PKK mRNA, HepaRG cells, 1,000 nM antisense oligonucleotide, Table 31
[6] = HepaRG cells, 1,000 nM antisense oligonucleotide, Table 29
[7] = Table 19, HepaRG cells, electroporation with 1,000 nM antisense oligonucleotide, approximately 24 hours, PKK mRNA by RT-PCR (RTS3454), relative to untreated control cells
[8] = HepaRG cells, electroporation with 1,000 nM antisense oligonucleotide, approximately 24 hours, primer probe set RTS3454, relative to untreated control cells, experiment of Table 24
[9] = HepaRG cells, electroporation with 1,000 nM antisense oligonucleotide, approx. 24 hours, PKK mRNA by RT-PCR (RTS3454), relative to untreated control cells, Table 25 experiment
[10] = Table 30, human PKK mRNA, HepaRG cells, 1,000 nM antisense oligonucleotide
[11] = HepaRG cells, electroporation with 5,000 nM antisense oligonucleotide, approximately 24 hours, PKK mRNA by RT-PCR (RTS3454), relative to untreated control cells, Table 6 experiment
[12] = HepaRG cells, electroporation, 5,000 nM antisense oligonucleotide, approx. 24 hours, primer probe set RTS3454, relative to untreated control cells, Table 11
[13] = Table 9 experiment, HepaRG cells, 20,000 cells per well, electroporation with 5,000 nM antisense oligonucleotide, approx. 24 hours, PKK mRNA by RT-PCR (RTS3454), relative to untreated control cells
[14] = Table 10 experiment, HepaRG cells, 20,000 cells per well, electroporation with 5,000 nM antisense oligonucleotide, approx. 24 hours, PKK mRNA by RT-PCR (RTS3454), relative to untreated control cells
[15] = Table 7, HepaRG cells, electroporation with 5,000 nM antisense oligonucleotide, approx. 24 hours, PKK mRNA by RT-PCR (RTS3454), relative to untreated control cells

Substance: 548351 (antisense e[5mC]*eT*kG*dG*dA*dA*dA*d[5mC]*dG*dA*dG*dA*d[5mC]*kA*k[5mC]*eA) [compound 548351]
- % inhibition (human PKK mRNA [1]; [3]): 33%

Substance: 547786 (antisense eA*eG*kT*dT*dG*d[5mC]*dT*dT*dG*d[5mC]*dT*dT*dG*kA*kA*eT) [compound 547786]
- % inhibition (human PKK mRNA [1]; [4]): 44%

Substance: 548687 (antisense eG*eA*kA*dT*d[5mC]*dT*d[5mC]*d[5mC]*d[5mC]*dT*dG*dA*dG*kT*k[5mC]*eA) [compound 548687]
- % inhibition (human PKK mRNA [1]; [5]): 20%

Substance: 548608 (antisense eA*eT*k[5mC]*dG*dG*dT*dG*dG*dT*dG*dG*dG*dA*kT*kT*eG) [compound 548608]
- % inhibition (human PKK mRNA [1]; [6]): 25%

Substance: 548345 (antisense e[5mC]*eT*kA*dA*d[5mC]*dT*d[5mC]*d[5mC]*dA*dT*d[5mC]*dA*d[5mC]*kT*kG*e[5mC]) [compound 548345]
- % inhibition (human PKK mRNA [1]; [3]): 55%

Substance: 548104 (antisense eA*eT*kG*dT*dA*d[5mC]*dT*d[5mC]*dA*dG*d[5mC]*dG*dA*k[5mC]*kT*eT) [compound 548104]
- % inhibition (human PKK mRNA [1]; [7]): 59%

Substance: 548375 (eT*e[5mC]*kG*dA*d[5mC]*dT*dT*d[5mC]*dT*d[5mC]*d[5mC]*dT*dG*kT*k[5mC]*eT; antisense) [compound 548375]
- % inhibition (human PKK mRNA [1]; [3]): 27%

Substance: 548302 (eG*e[5mC]*k[5mC]*dA*dT*dT*dT*dT*dA*dT*d[5mC]*d[5mC]*d[5mC]*kT*kG*eA; antisense) [compound 548302]
- % inhibition (human PKK mRNA [1]; HepaRG cells, electroporation with 1,000 nM antisense oligonucleotide, approx. 24 hours, PKK mRNA by RT-PCR (RTS3454), relative to untreated control cells, Table 26 experiment): 71%

Substance: 547939 (eT*eT*kT*dG*dT*dG*dA*d[5mC]*dT*d[5mC]*dG*dA*dT*kT*kT*eT; antisense) [compound 547939]
- % inhibition (human PKK mRNA [1]; HepaRG cells, electroporation with 1,000 nM antisense oligonucleotide, approximately 24 hours, primer probe set RTS3454, relative to untreated control cells, experiment of Table 23): 70%

Substance: 548000 (antisense e[5mC]*e[5mC]*k[5mC]*dT*dT*dG*dT*dG*dT*d[5mC]*d[5mC]*d[5mC]*dA*kT*kA*e[5mC]) [compound 548000]
- % inhibition (human PKK mRNA [1]; [8]): 54%

Substance: 548136 (eG*eG*k[5mC]*dT*d[5mC]*dA*dG*dA*dA*dT*dT*dT*dG*kA*k[5mC]*eT; antisense) [compound 548136]
- % inhibition (human PKK mRNA [1]; [7]): 39%

Substance: 548670 (antisense eG*eA*kA*dA*dA*dG*d[5mC]*d[5mC]*d[5mC]*dT*d[5mC]*d[5mC]*dG*kA*kG*e[5mC]) [compound 548670]
- % inhibition (human PKK mRNA [1]; [5]): 15%

Substance: 548143 (e[5mC]*eA*k[5mC]*dT*d[5mC]*dT*d[5mC]*d[5mC]*dA*dT*dG*d[5mC]*dT*kT*kT*eG; antisense) [compound 548143]
- % inhibition (human PKK mRNA [1]; [7]): 39%

Substance: 547999 (antisense e[5mC]*e[5mC]*kT*dT*dG*dT*dG*dT*d[5mC]*d[5mC]*d[5mC]*dA*dT*kA*k[5mC]*eG) [compound 547999]
- % inhibition (human PKK mRNA [1]; [8]): 50%

Substance: 548199 (eG*e[5mC]*kA*d[5mC]*dT*dG*d[5mC]*dA*dG*dG*d[5mC]*dA*dA*kT*kA*eT; antisense) [compound 548199]
- % inhibition (human PKK mRNA [1]; [9]): 24%

Substance: 547790 (antisense eT*eG*kA*dA*dA*dT*dA*dA*dG*dT*dT*dG*d[5mC]*kT*kT*eG) [compound 547790]
- % inhibition (human PKK mRNA [1]; [4]): 23%

Substance: 548553 (antisense e[5mC]*e[5mC]*k[5mC]*dG*dA*dA*dG*dA*dG*dT*d[5mC]*dA*dA*kG*kT*e[5mC]) [compound 548553]
- % inhibition (human PKK mRNA [1]; [6]): 46%

Substance: 548453 (eT*eA*k[5mC]*d[5mC]*dT*dA*dT*dA*dA*d[5mC]*dA*dG*dT*kA*kT*e[5mC]; antisense) [compound 548453]
- % inhibition (human PKK mRNA [1]; [10]): 12%

Substance: 548394 (eG*eG*k[5mC]*dA*dG*dG*dA*dG*dA*d[5mC]*dT*d[5mC]*d[5mC]*kG*kT*eG; antisense) [compound 548394]
- % inhibition (human PKK mRNA [1]; [10]): 25%

Substance: 548214 (e[5mC]*eA*kG*dA*d[5mC]*dA*dG*d[5mC]*d[5mC]*d[5mC]*dA*d[5mC]*d[5mC]*kA*kA*e[5mC]; antisense) [compound 548214]
- % inhibition (human PKK mRNA [1]; [9]): 55%

Substance: 548589 (eT*e[5mC]*kT*dG*dT*dT*dA*d[5mC]*d[5mC]*dT*dT*dG*dA*kG*kG*eA; antisense) [compound 548589]
- % inhibition (human PKK mRNA [1]; [6]): 40%

Substance: 548078 (eT*e[5mC]*kT*dT*d[5mC]*dA*dT*dT*dT*dG*dT*dT*dA*k[5mC]*k[5mC]*eA; antisense) [compound 548078]
- % inhibition (human PKK mRNA [1]; [7]): 36%

Substance: 548332 (antisense eG*eA*kT*dG*dA*dA*dA*dT*dG*dT*dG*d[5mC]*dA*k[5mC]*k[5mC]*eT) [compound 548332]
- % inhibition (human PKK mRNA [1]; [3]): 46%

Substance: 546184 (antisense e[5mC]*eA*eA*eG*e[5mC]*dA*d[5mC]*dT*dT*dA*dT*dT*dT*dG*dA*eT*eG*eA*e[5mC]*e[5mC]) [compound 546184]
- % inhibition (human PKK mRNA [2]; [11]): 65%

Substance: 547506 (antisense eA*eG*eG*e[5mC]*eT*d[5mC]*dA*dG*dA*dA*dT*dT*dT*dG*dA*e[5mC]*eT*eT*eG*eA) [compound 547506]
- % inhibition (human PKK mRNA [2]; [12]): 78%

Substance: 546861 (eT*eA*eA*e[5mC]*eA*dA*dT*dA*dT*d[5mC]*dA*d[5mC]*dT*dG*dT*e[5mC]*e[5mC]*eT*eA*eT; antisense) [compound 546861]
- % inhibition (human PKK mRNA [2]; human PKK mRNA in HepaRG cells, 5-10-5 gapmers, Table 14): 68%

Substance: 546890 (eT*eG*eT*e[5mC]*e[5mC]*dT*dA*dT*dG*dT*d[5mC]*dA*d[5mC]*dT*dG*eT*eA*e[5mC]*e[5mC]*eT; antisense) [compound 546890]
- % inhibition (human PKK mRNA [2]; human PKK mRNA, HepaRG cells, 5-10-5 motif oligonucleotides targeting SEQ ID NO: 1 and 10): 78%

Substance: 546324 (antisense eG*eG*eT*eA*eT*dA*dA*dA*dT*dT*dG*dT*dG*d[5mC]*dT*eT*eG*eT*eG*eT) [compound 546324]
- % inhibition (human PKK mRNA [2]; [13]): 73%
- % inhibition (human PKK mRNA [2]; [14]): 82%

Substance: 547307 (antisense eG*eA*eA*eG*e[5mC]*dA*dA*d[5mC]*d[5mC]*dA*dA*dA*d[5mC]*d[5mC]*dT*eT*eT*eT*e[5mC]*eT) [compound 547307]
- % inhibition (human PKK mRNA [2]; HepaRG cells, electroporation with 5,000 nM antisense oligonucleotide, approximately 24 hours, PKK mRNA by RT-PCR (RTS3454), relative to untreated control cells, Table 5 experiment): 58%

Substance: 547318 (antisense e[5mC]*e[5mC]*eA*eG*eA*dA*dA*d[5mC]*dT*dG*d[5mC]*dA*d[5mC]*d[5mC]*dT*eG*eT*eT*e[5mC]*eG) [compound 547318]
- % inhibition (human PKK mRNA [2]; [11]): 74%

Substance: 546238 (e[5mC]*eT*eT*eT*eT*dG*d[5mC]*dA*dG*dG*dT*dT*dA*dA*dA*eA*eG*eG*e[5mC]*eT; antisense) [compound 546238]
- % inhibition (human PKK mRNA [2]; [15]): 63%

Substance: 547346 (antisense eA*e[5mC]*e[5mC]*eT*eT*dA*dG*dA*d[5mC]*dA*d[5mC]*dA*dT*dT*dA*eA*eA*eA*eT*eT) [compound 547346]
- % inhibition (human PKK mRNA [2]; [11]): 57%

Substance: 546378 (antisense eT*eT*eT*eG*e[5mC]*dA*dG*dA*dT*dG*dA*dG*dG*dA*d[5mC]*e[5mC]*e[5mC]*e[5mC]*e[5mC]*e[5mC]) [compound 546378]
- % inhibition (human PKK mRNA [2]; [12]): 79%

Substance: 547548 (antisense eT*eG*e[5mC]*eA*eT*dA*d[5mC]*dT*d[5mC]*dG*d[5mC]*d[5mC]*dT*dT*dT*eG*eT*eG*eA*eT) [compound 547548]
- % inhibition (human PKK mRNA [2]; HepaRG cells, electroporation, 5,000 nM antisense oligonucleotide, approx. 24 hours, primer probe set RTS3454, relative to untreated control cells, Table 12): 61%

Substance: 547474 (antisense eT*eG*eT*eA*eG*dA*dA*dT*dA*dT*dT*dT*dT*dG*dG*eA*eT*eT*eT*e[5mC]) [compound 547474]
- % inhibition (human PKK mRNA [2]; [13]): 51%
- % inhibition (human PKK mRNA [2]; [14]): 34%

Substance: 547371 (eA*eT*eG*eG*eT*d[5mC]*d[5mC]*dG*dA*d[5mC]*dA*d[5mC]*dA*d[5mC]*dA*eA*eA*eA*eG*e[5mC]; antisense) [compound 547371]
- % inhibition (human PKK mRNA [2]; [15]): 66%
